Laboratory results taken from US8609667B2, “E-type phenyl acrylic ester compounds containing substituted anilino pyrimidine group and uses thereof” (Sinochem Corporation, priority 2009, dated 2013).
Where two headings read alike, the source gives them in different places.

Key:
Format in all cases: in vivo
[1] = tested on: adults of Tetranychus cinnabarinus; assay: Acaricidal activity against adults in greenhouse (spray on broadbean shoots, mortality after 72 hrs); conditions: for control against adults of Tetranychus cinnabarinus: spray, 72 hrs; for mortality at 10 µg/mL / mortality at 40 µg/mL / mortality at 0.625 µg/mL / mortality at 1.25 µg/mL / mortality at 2.5 µg/mL / mortality at 5 µg/mL: Tetranychus cinnabarinus, read-out: mortalities of adults of Tetranychus cinnabarinus (%)
Description: (§1) The activity determinations of compounds of the present invention against adults, nymphs and eggs of Tetranychus cinnabarinus were carried out in greenhouse by the following procedures:
The activity determination against adults in greenhouse: the compounds were weighed and dissolved in acetone to obtain mother liquid, and then the mother liquid was diluted to required concentration with placed running water containing 0.1% of Tween 80. Broadbean shoots with two true leaves were used to inoculate adults of Tetranychus cinnabarinus which were counted, spraying treatment was performed by portable sprayer (DeVilbiss Atomizer M163), 3 replicates were set for each treatment. After treatment the broadbean shoots were maintained in standard observation room. Scores were conducted and mortalities were calculated after 72 hrs.

[2] = tested on: nymphs of Tetranychus cinnabarinus; assay: Acaricidal activity against nymphs in greenhouse (spray, mortality after 72 hrs)
Description: as §1
The activity determination against nymphs in greenhouse: broadbean shoots with two true leaves in pot were taken, ten healthy female adults of Tetranychus cinnabarinus were inoculated to the leaves, the adults were removed after 24 hrs and the eggs were cultivated into nymphs after 7-10 days. The nymphs were counted and then sprayed. 3 replicates were set for each treatment. And then were maintained in standard observation room. Scores were conducted and mortalities were calculated after 72 hrs.

[3] = tested on: eggs of Tetranychus cinnabarinus; assay: Activity against eggs in greenhouse (hatching inhibition rate); conditions: for hatching inhibition rate against eggs of Tetranychus cinnabarinus: dose 10 mg/L; for inhibition at 0.625 µg/mL / inhibition at 2.5 µg/mL / inhibition at 10 µg/mL: Tetranychus cinnabarinus, read-out: hatching inhibition rate against eggs (%)
Description: as §1
The activity determination against eggs in greenhouse: Broadbean shoots in pot with one true leaf retained were taken, ten healthy female adults of Tetranychus cinnabarinus were inoculated to the leaves, the adults were removed after 24 hrs and the eggs were counted and then sprayed. The treatment of test compounds and spaying method were the same as that of the activity determination in greenhouse against adults. Once eggs of blank control were all hatched after 5 days, unhatched eggs in each treatment were investigated and the hatching inhibition rate were calculated.

[4] = tested on: citrus red mite; assay: Field trial against citrus red mite (Guilin, China); conditions: 48 mg/L (24% SC)
Description: Field Trial Against Citrus Red Mite (Guilin, China)
The trial was carried out in a 2-year-old Shatang orange orchard in Chaotian town lingchuan county guilin city, trifoliate orange trees were selected as stocks, the intervals between two plants was 1.5×2.5 m, the average height was 1.45 m and the crown width was 1.30 m. Two trees were selected in each plot, with random arrangement and 4 replications. Compound 9 (15% SC) was set at two different doses (100 mg/L and 25 mg/L), and spirodiclofen (24% SC) was set at one dose (48 mg/L). Matabi Supergreen 16 Knapsack Sprayer 16 Liter was used to spray evenly with 2 L of spaying volume for each plant. The plants were treated once on 30 Oct. 2009, at that time, adults, nymphs and eggs of citrus red mite all existed, with adults/eggs=1/1.27. During the day the plants were treated, and the weather was good with the average temperature at 23° C. The first three days after treatment were all clear days. The number of mites was investigated before treatment and on the 1st, 3rd, 10th, 15th, 20th and 30th day after treatment respectively. Two trees of each plot were investigated according to the five directions of the tree crown (east, south, west, north and central), 5 leaves in each direction were investigated to calculate the number of living mites, with 50 leaves each plot. The decline rate of mite population and corrected efficacy were calculated according to formulas below: The decline rate of mite population(%)=[(the average number of mite on each leaf before treatment−the average number of mite on each leaf after treatment)/the average number of mite on each leaf before treatment]×100. Corrected efficacy(%)=[(the decline rate of mite population in treated area−the decline rate of mite population in untreated area)/(100−the decline rate of mite population in untreated area)]×100.

Structure (SMILES): CO/C=C(/C(=O)OC)c1ccccc1COc1cc(C(F)(F)F)nc(Nc2ccc(Cl)cc2F)n1 [Compound 12]
- control against adults of Tetranychus cinnabarinus ([1]; dose 5 mg/L): 100%
- control against adults of Tetranychus cinnabarinus ([1]; dose 10 mg/L): 100%
- control against adults of Tetranychus cinnabarinus ([1]; dose 40 mg/L): 100%
- control against adults of Tetranychus cinnabarinus ([1]; dose 100 mg/L): 100%

Structure (SMILES): CO/C=C(/C(=O)OC)c1ccccc1COc1nc(Nc2ccccc2)nc(C(F)(F)F)c1Cl [Compound 85]
- control against adults of Tetranychus cinnabarinus ([1]; dose 100 mg/L): 100%

Structure (SMILES): CO/C=C(/C(=O)OC)c1ccccc1COc1cc(C(F)(F)F)nc(Nc2ccc(F)c(F)c2F)n1 [Compound 15]
- control against adults of Tetranychus cinnabarinus ([1]; dose 0.31 mg/L): more than 75%
- control against adults of Tetranychus cinnabarinus ([1]; dose 0.625 mg/L): 95%
- control against adults of Tetranychus cinnabarinus ([1]; dose 5 mg/L): 100%
- control against adults of Tetranychus cinnabarinus ([1]; dose 10 mg/L): 100%
- control against adults of Tetranychus cinnabarinus ([1]; dose 40 mg/L): 100%
- control against adults of Tetranychus cinnabarinus ([1]; dose 100 mg/L): 100%
- control against nymphs of Tetranychus cinnabarinus ([2]; dose 0.63 mg/L): 100%
- control against nymphs of Tetranychus cinnabarinus ([2]; dose 2.5 mg/L): 100%
- hatching inhibition rate against eggs of Tetranychus cinnabarinus [3]: 100%

Structure (SMILES): CO/C=C(/C(=O)OC)c1ccccc1COc1cc(C(F)(F)F)nc(N(C)C)n1 [Contrast B, reference compound]
- mortality at 10 µg/mL ([1]; 10 mg/L, Table 7): 0%
- mortality at 40 µg/mL ([1]; 40 mg/L, Table 7): 0%

Structure (SMILES): CCC(C)(C)C(=O)OC1=C(c2ccc(Cl)cc2Cl)C(=O)OC12CCCCC2 [Spirodiclofen, reference compound]
- hatching inhibition rate against eggs (%) ([3]; 0.625 mg/L, Table 8): 0%
- hatching inhibition rate against eggs (%) ([3]; 2.5 mg/L, Table 8): 70%
- hatching inhibition rate against eggs (%) ([3]; 10 mg/L, Table 8): 100%
- Corrected efficacy (%) ([4]; the 1st day after treatment): 59%
- Corrected efficacy (%) ([4]; the 3rd day after treatment): 72%
- Corrected efficacy (%) ([4]; the 10th day after treatment): 75%
- Corrected efficacy (%) ([4]; the 15th day after treatment): 76%
- Corrected efficacy (%) ([4]; the 20th day after treatment): 83%
- Corrected efficacy (%) ([4]; the 30th day after treatment): 82%

Structure (SMILES): CO/C=C(/C(=O)OC)c1ccccc1COc1nc(Nc2ccc(F)cc2F)nc(C(F)(F)F)c1C [Compound 79]
- control against adults of Tetranychus cinnabarinus ([1]; dose 10 mg/L): 100%
- control against adults of Tetranychus cinnabarinus ([1]; dose 40 mg/L): 100%
- control against adults of Tetranychus cinnabarinus ([1]; dose 100 mg/L): 100%

Structure (SMILES): CO/C=C(/C(=O)OC)c1ccccc1COc1cc(C(F)(F)F)nc(Nc2ccccc2F)n1 [Compound 2]
- control against adults of Tetranychus cinnabarinus ([1]; dose 10 mg/L): 100%
- control against adults of Tetranychus cinnabarinus ([1]; dose 40 mg/L): 100%
- control against adults of Tetranychus cinnabarinus ([1]; dose 100 mg/L): 100%

Structure (SMILES): CO/C=C(/C(=O)OC)c1ccccc1COc1nc(Nc2ccccc2)nc(C(F)(F)F)c1C [Compound 84]
- control against adults of Tetranychus cinnabarinus ([1]; dose 100 mg/L): 100%

Structure (SMILES): CO/C=C(/C(=O)OC)c1ccccc1COc1nc(Nc2ccccc2Cl)nc(C(F)(F)F)c1C [Compound 82]
- control against adults of Tetranychus cinnabarinus ([1]; dose 100 mg/L): 100%

Structure (SMILES): CO/C=C(/C(=O)OC)c1ccccc1COc1cc(C(F)(F)F)nc(Nc2cccc(C)c2)n1 [Compound 6]
- control against adults of Tetranychus cinnabarinus ([1]; dose 40 mg/L): 100%
- control against adults of Tetranychus cinnabarinus ([1]; dose 100 mg/L): 100%

Structure (SMILES): CO/C=C(/C(=O)OC)c1ccccc1COc1cc(C(F)(F)F)nc(Nc2cccc(Cl)c2Cl)n1 [Contrast C]
- inhibition at 0.625 µg/mL ([3]; 0.625 mg/L, Table 8): 0%
- inhibition at 2.5 µg/mL ([3]; 2.5 mg/L, Table 8): 10%
- inhibition at 10 µg/mL ([3]; 10 mg/L, Table 8): 100%

Structure (SMILES): CO/C=C(/C(=O)OC)c1ccccc1COc1cc(C(F)(F)F)nc(Nc2ccc(Cl)c(C)c2Cl)n1 [Compound 17]
- control against adults of Tetranychus cinnabarinus ([1]; dose 5 mg/L): 100%
- control against adults of Tetranychus cinnabarinus ([1]; dose 10 mg/L): 100%
- control against adults of Tetranychus cinnabarinus ([1]; dose 40 mg/L): 100%
- control against adults of Tetranychus cinnabarinus ([1]; dose 100 mg/L): 100%

Structure (SMILES): CO/C=C(/C(=O)OC)c1ccccc1COc1cc(C(F)(F)F)nc(OC(C)C)n1 [Fluacrypyrim, reference compound]
- mortality at 0.625 µg/mL [1]: 0%
- mortality at 1.25 µg/mL [1]: 30%
- mortality at 2.5 µg/mL [1]: 65%
- mortality at 5 µg/mL [1]: 95%
- mortality at 10 µg/mL [1]: 100%
- mortality at 40 µg/mL [1]: 100%
- inhibition at 0.625 µg/mL [3]: 0%
- inhibition at 2.5 µg/mL [3]: 10%
- inhibition at 10 µg/mL [3]: 95%

Structure (SMILES): CO/C=C(/C(=O)OC)c1ccccc1COc1cc(C(F)(F)F)nc(Nc2ccc(F)cc2F)n1 [Compound 8]
- control against adults of Tetranychus cinnabarinus ([1]; dose 5 mg/L): 100%
- control against adults of Tetranychus cinnabarinus ([1]; dose 10 mg/L): 100%
- control against adults of Tetranychus cinnabarinus ([1]; dose 40 mg/L): 100%
- control against adults of Tetranychus cinnabarinus ([1]; dose 100 mg/L): 100%
- control against nymphs of Tetranychus cinnabarinus ([2]; dose 0.63 mg/L): more than 75%
- control against nymphs of Tetranychus cinnabarinus ([2]; dose 2.5 mg/L): more than 95%
- hatching inhibition rate against eggs (%) ([3]; 0.625 mg/L, Table 8): 25%
- hatching inhibition rate against eggs (%) ([3]; 2.5 mg/L, Table 8): 90%
- hatching inhibition rate against eggs (%) ([3]; 10 mg/L, Table 8): 100%
- hatching inhibition rate against eggs of Tetranychus cinnabarinus [3]: 100%

Structure (SMILES): CO/C=C(/C(=O)OC)c1ccccc1COc1nc(Nc2ccc(F)c(F)c2F)nc(C(F)(F)F)c1C [Compound 80]
- control against adults of Tetranychus cinnabarinus ([1]; dose 40 mg/L): 100%
- control against adults of Tetranychus cinnabarinus ([1]; dose 100 mg/L): 100%

Structure (SMILES): CO/C=C(/C(=O)OC)c1ccccc1COc1cc(C(F)(F)F)nc(Nc2ccc(Cl)c(Cl)c2Cl)n1 [Compound 16]
- control against adults of Tetranychus cinnabarinus ([1]; dose 5 mg/L): 100%
- control against adults of Tetranychus cinnabarinus ([1]; dose 10 mg/L): 100%
- control against adults of Tetranychus cinnabarinus ([1]; dose 40 mg/L): 100%
- control against adults of Tetranychus cinnabarinus ([1]; dose 100 mg/L): 100%
- hatching inhibition rate against eggs of Tetranychus cinnabarinus [3]: 100%

Structure (SMILES): CO/C=C(/C(=O)OC)c1ccccc1COc1nc(Nc2ccc(Cl)cc2)nc(C(F)(F)F)c1C [Compound 83]
- control against adults of Tetranychus cinnabarinus ([1]; dose 100 mg/L): 100%

Structure (SMILES): CO/C=C(/C(=O)OC)c1ccccc1COc1cc(C(F)(F)F)nc(Nc2ccccc2)n1 [Contrast A, reference compound]
- mortality at 0.625 µg/mL ([1]; 0.625 mg/L, Table 7): 0%
- mortality at 1.25 µg/mL ([1]; 1.25 mg/L, Table 7): 10%
- mortality at 2.5 µg/mL ([1]; 2.5 mg/L, Table 7): 30%
- mortality at 5 µg/mL ([1]; 5 mg/L, Table 7): 60%
- mortality at 10 µg/mL ([1]; 10 mg/L, Table 7): 90%
- mortality at 40 µg/mL ([1]; 40 mg/L, Table 7): 100%
- inhibition at 0.625 µg/mL ([3]; 0.625 mg/L, Table 8): 0%
- inhibition at 2.5 µg/mL ([3]; 2.5 mg/L, Table 8): 10%
- inhibition at 10 µg/mL ([3]; 10 mg/L, Table 8): 100%

Structure (SMILES): CO/C=C(/C(=O)OC)c1ccccc1COc1cc(C(F)(F)F)nc(Nc2cc(Cl)ccc2Cl)n1 [Compound 18]
- control against adults of Tetranychus cinnabarinus ([1]; dose 40 mg/L): 100%
- control against adults of Tetranychus cinnabarinus ([1]; dose 100 mg/L): 100%

Structure (SMILES): CO/C=C(/C(=O)OC)c1ccccc1COc1cc(C(F)(F)F)nc(Nc2ccc(F)c(Cl)c2)n1 [Compound 13]
- control against adults of Tetranychus cinnabarinus ([1]; dose 100 mg/L): 100%
